The target of test [1] is T1, CRTH2 (Homo sapiens, UniProt Q9Y5Y4).
T1 construct: polymorphonuclear cells (0.5 ml; 10^6/ml cells) in PBS containing 0.9 mM CaCl2 and 0.5 mM MgCl2; endogenous in cells; host or cells: polymorphonuclear cells (eosinophils gated by flow cytometry)
T1 sequence (Q9Y5Y4 1-395): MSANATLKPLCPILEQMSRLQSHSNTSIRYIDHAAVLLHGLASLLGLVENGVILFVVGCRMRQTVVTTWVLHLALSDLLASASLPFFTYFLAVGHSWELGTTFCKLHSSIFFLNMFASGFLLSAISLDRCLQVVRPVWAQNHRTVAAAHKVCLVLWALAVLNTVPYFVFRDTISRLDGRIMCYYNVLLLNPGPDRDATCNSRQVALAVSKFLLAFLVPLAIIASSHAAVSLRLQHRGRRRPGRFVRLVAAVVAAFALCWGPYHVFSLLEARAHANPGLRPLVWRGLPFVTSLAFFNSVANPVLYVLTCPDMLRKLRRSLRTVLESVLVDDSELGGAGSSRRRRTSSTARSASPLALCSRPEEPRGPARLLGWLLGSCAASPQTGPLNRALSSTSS
The test is described as follows: DPBS CD11b Antagonist Assay. The test is classed as cell-based. To be noted: polymorphonuclear cells in PBS, eosinophil CD11b expression, challenge with 15R-Methyl-PGD2 (10 nM). The method, then: DPBS CD11b Antagonist Assay. The potential CRTH2 antagonist activity of certain compounds was tested using a CD11b expression assay using essentially the method described by Monneret et al. (J Pharmacol Exp Ther 304:349-55, 2003). Briefly, polymorphonuclear cells (0.5 ml; 10^6/ml cells) in PBS containing 0.9 mM CaCl2 and 0.5 mM MgCl2) were preincubated with various concentrations of test compounds at room temperature for 10 minutes before they were challenged with the agonist 15R-Methyl-PGD2 (10 nM). The incubations were terminated by the addition of ice-cold FACSFlow (BD Biosciences; Cat# 342003) and centrifugation (400 g for 5 minutes at 4° C.). The cells were then incubated for 30 minutes at 4° C. with a mixture of PE-labeled mouse anti-human VLA-4 (5 μl; BD Biosciences) and FITC-labeled mouse anti-human CD11b (10 μl; Beckman Coulter). The cells were then incubated with Optilyse C (0.25 ml; Beckman Coulter) for 15 minutes, centrifuged, and then fixed in PBS (0.4 ml; calcium and magnesium free) containing 1% formaldehyde. The distribution of fluorescence intensities among 60,000 cells was measured by flow cytometry. Eosinophils were gated out on the basis of their granularity (high side scatter) and labeling with VLA-4 (PE fluorescence). CD11b was then measured in the eosinophil region on the basis of fluorescence due to FITC. All data were corrected for the value obtained for the corresponding isotope control antibody.

Test [2] relates to DK-PGD2-induced systemic eosinophilia. As to the kind of experiment: DK-PGD2-Induced Systemic Eosinophilia in Rats. The test is classed as in vivo. To be noted: Rattus norvegicus, Eosinophil; female Sprague-Dawley rats, oral dosing 30 min before intracardiac 10 μg DK-PGD2, blood eosinophils at 60 min. The method, then:
DK-PGD2-Induced Systemic Eosinophilia in Rats. Female Sprague-Dawley rats (175-250 g) were dosed orally with test compound (or vehicle). Thirty minutes after dosing, animals were anaesthetized with isoflurane. Following induction of anaesthesia, animals received an intracardiac injection of 10 μg DK-PGD2 in 0.3 ml heparinized (10 U/ml) saline. Control animals received an injection of 0.3 ml heparinized saline. Sixty minutes after the intracardiac injection, animals were again anesthetized with isoflurane and a blood sample was drawn from the abdominal aorta (into heparin) while the rat was anaesthetized but not dead. An aliquot of blood (500 μL) was mixed with an equal volume of 4% dextran (mw 500,000) and the erythrocytes were allowed to settle. A cytospin preparation was made from the resulting leukocyte rich fraction (top) and the cytospin was fixed and stained with Diff-Quick Stain kit (Dade Behring Inc, Newark, Del.). An aliquot of the leukocyte rich fraction was taken for total leukocyte count using flow cytometer (Guava EasyCyte Mini system). Differential leukocyte counts were obtained from the cytospin preparations. Blood eosinophil numbers were determined from the total leukocyte count and the percentage eosinophils.

Test [3] has as its target T1, CRTH2. The test is described as follows: Human Whole Blood CD11b Antagonist Assay. The test is classed as cell-based. To be noted: eosinophil CD11b expression, challenge with 15R-Methyl-PGD2 (10 nM). The method, then:
Human Whole Blood CD11b Antagonist Assay (modified from Nicholson, et al. Pulmonary Pharmacology and Therapeutics: 20 (2007); 52-59). The potential CRTH2 antagonist activity of certain compounds was tested in human whole blood using an assay that tests the ability of the compounds to block the CD11b expression in eosinophils by 15-R-methyl-PGD2. A CRTH2 antagonist should block CD11b expression by subsequently added 15-Methyl-PGD2. Human whole blood (200 μL) was incubated at 37° C. for 10 minutes in the presence of various concentrations of test compounds before being challenged with the agonist 15R-Methyl-PGD2 (10 nM). Reactions were terminated by the addition of ice-cold PBS+0.5% BSA+2 mMEDTA (1 mL) and centrifugation (300×g for 5 minutes at 4° C.) Cells were then incubated at 4° C. for 10 min in the presence of human IgG. Cells were then incubated for 30-45 min with a mixture of PE-Cy5-labeled mouse anti-human CD16 (10 ul; BD Biosciences) and FITC-labeled mouse anti-human CD11b (10 μL; Beckman Coulter.) After rinsing (1 mL ice-cold PBS+0.5% BSA+2 mMEDTA), red blood cells were lysed by the addition of 1 mL ice-cold H2O to the cell pellet for 30 sec-1 min immediately followed by the addition of 3.5% NaCl (300 μL.) Cells were then rinsed (2x−1 ml ice cold PBS+0.5% BSA+2 mMEDTA) and fixed in PBS containing 1% formaldehyde. The distribution of fluorescence intensities was measured by flow cytometry. Eosinophils were gated out on the basis of their granularity (high side scatter) and absence of CD-16. CD11b was then measured on this eosinophil population on the basis of fluorescence due to FITC.

Some results are limits rather than exact numbers.

In general, IC50 refers to the point on the concentration scale where inhibition reaches its midpoint. Usually ED50 stands for the midpoint of the dose-response relation. Low values mean an effect at a small dose, high ones a need for a large dose.

Turning to `Cc1c(Cc2ccccc2S(=O)(=O)N2CCCC2)c2c(n1CC(=O)O)CCCCC2` [Example I-22, 2-(2-Methyl-3-(2-(pyrrolidin-1-ylsulfonyl)benzyl)-5,6,7,8-tetrahydrocyclohepta[b]pyrrol-1(4H)-yl)acetic acid], the IC50 against CRTH2 [1] was in the range of 5 to 100 nM. The same molecule showed an ED50 in test [2] of under 1 mg/kg.

Take `Cc1c(Cc2ccc(S(=O)(=O)N3CCCC3)cc2)c2c(n1CC(=O)O)CCC(C)(C)C2` [Example I-4, 2-(2,5,5-Trimethyl-3-(4-(pyrrolidin-1-ylsulfonyl)benzyl)-4,5,6,7-tetrahydro-1H-indol-1-yl)acetic acid]: the IC50 on CRTH2 [1] is under 5 nM; at CRTH2 [3] it was 5 to 100 nM. Further, the ED50 in test [2] is under 1 mg/kg.

Regarding `Cc1c(Cc2ccc(S(=O)(=O)NC3CCCCC3)cc2)c2c(n1CC(=O)O)CCCC2` [Example I-2, 2-(3-(4-(N-Cyclohexylsulfamoyl)benzyl)-2-methyl-4,5,6,7-tetrahydro-1H-indol-1-yl)acetic acid], the values for the IC50 at CRTH2 [1] and at CRTH2 [3] were under 5 nM and 100 to 500 nM, respectively. The same molecule gave an ED50 in test [2] of 1 to 10 mg/kg.

In the case of `CCOC(=O)Cn1c(C)c(Cc2ccccc2S(=O)(=O)N2CCCC2)c2c1CC(C)(C)CC2=O` [Example I-51, ethyl 2-(2,6,6-trimethyl-4-oxo-3-(2-(pyrrolidin-1-ylsulfonyl)benzyl)-4,5,6,7-tetrahydro-1H-indol-1-yl)acetate], on CRTH2 [1], the IC50 is 100 to 500 nM. Besides, in test [2], the ED50 was under 1 mg/kg.

In test [2], `Cc1c(Cc2ccccc2S(=O)(=O)c2ccccc2)c2c(n1CC(=O)O)CCC(C)(C)C2` [Example I-9, 2-(2,5,5-Trimethyl-3-(2-(phenylsulfonyl)benzyl)-4,5,6,7-tetrahydro-1H-indol-1-yl)acetic acid] had an ED50 of under 1 mg/kg.

As for `Cc1c(Cc2ccccc2S(=O)(=O)N2CCCC2)c2c(n1CC(=O)OC(C)C)CC(C)(C)CC2=O` [Example I-55, isopropyl 2-(2,6,6-trimethyl-4-oxo-3-(2-(pyrrolidin-1-ylsulfonyl)benzyl)-4,5,6,7-tetrahydro-1H-indol-1-yl)acetate], the IC50 against CRTH2 [1] lay within 100 to 500 nM. In test [2], this molecule displayed an ED50 of under 1 mg/kg.

With `Cc1c(Cc2ccccc2S(=O)(=O)N2CCOCC2)c2c(n1CC(=O)O)CCC(C)(C)C2` [Example I-17, 2-(2,5,5-Trimethyl-3-(2-(morpholinosulfonyl)benzyl)-4,5,6,7-tetrahydro-1H-indol-1-yl)acetic acid], the IC50 against CRTH2 [1] was under 5 nM; on CRTH2 [3], 5 to 100 nM. Besides, in test [2], the ED50 is under 1 mg/kg.

`Cc1c(Cc2ccccc2S(=O)(=O)N2CCOCC2)c2c(n1CC(=O)O)CCC2` [Example I-23, 2-(2-methyl-3-(2-(morpholinosulfonyl)benzyl)-5,6-dihydrocyclopenta[b]pyrrol-1(4H)-yl)acetic acid]: the ED50 in test [2] lay within 1 to 10 mg/kg.

For `Cc1c(Cc2ccc(S(=O)(=O)N3CCCC3)cc2)c2c(n1CC(=O)O)CCCC2` [Example I-1, 2-(2-Methyl-3-(4-(pyrrolidin-1-ylsulfonyl)benzyl)-4,5,6,7-tetrahydro-1H-indol-1-yl)acetic acid], the IC50 against CRTH2 [1] was under 5 nM; against CRTH2 [3], 5 to 100 nM. In test [2], this molecule showed an ED50 of 1 to 10 mg/kg.

`Cc1c(Cc2ccccc2S(=O)(=O)N2CCOCC2)c2c(n1CC(=O)O)CCCCC2` [Example I-21, 2-(2-Methyl-3-(2-(morpholinosulfonyl)benzyl)-5,6,7,8-tetrahydrocyclohepta[b]pyrrol-1(4H)-yl)acetic acid]: the IC50 was 5 to 100 nM at CRTH2 [1] and 100 to 500 nM against CRTH2 [3]. In test [2], this molecule gave an ED50 of under 1 mg/kg.

Turning to `Cc1c(Cc2ccc(S(=O)(=O)N3CCOCC3)cc2)c2c(n1CC(=O)O)CCC(C)(C)C2` [Example I-11, 2-(2,5,5-Trimethyl-3-(4-(morpholinosulfonyl)benzyl)-4,5,6,7-tetrahydro-1H-indol-1-yl)acetic acid], the values for the IC50 against CRTH2 [1] and on CRTH2 [3] were under 5 nM and 100 to 500 nM, respectively. The same molecule gave an ED50 in test [2] of under 1 mg/kg.

At CRTH2 [1], `Cc1c(Cc2ccc(S(=O)(=O)N3CCCC3)cc2)c2c(n1CC(=O)O)CCC2` [Example I-19, 2-(2-Methyl-3-(4-(pyrrolidin-1-ylsulfonyl)benzyl)-5,6-dihydrocyclopenta[b]pyrrol-1(4H)-yl)acetic acid] registered an IC50 of 5 to 100 nM. Further, in test [2], the ED50 was under 1 mg/kg.

Take `Cc1c(Cc2ccccc2S(=O)(=O)N(C)c2ccccc2)c2c(n1CC(=O)O)CC(C)(C)CC2=O` [Example I-49, 2-(2,6,6-trimethyl-3-(2-(N-methyl-N-phenylsulfamoyl)benzyl)-4-oxo-4,5,6,7-tetrahydro-1H-indol-1-yl)acetic acid]: the IC50 against CRTH2 [1] was under 5 nM. This molecule returned an ED50 in test [2] of 1 to 10 mg/kg.

As for `Cc1c(Cc2ccccc2S(=O)(=O)N2CCCC2)c2c(n1CC(=O)O)CC(C)(C)CC2=O` [Example I-43, 2-(2,6,6-trimethyl-4-oxo-3-(2-(pyrrolidin-1-ylsulfonyl)benzyl)-4,5,6,7-tetrahydro-1H-indol-1-yl)acetic acid], the IC50 against CRTH2 [1] is under 5 nM; on CRTH2 [3], 5 to 100 nM. Moreover, in test [2], the ED50 was under 1 mg/kg.

In the case of `Cc1c(Cc2ccccc2S(=O)(=O)N2CCOCC2)c2c(n1CC(=O)O)CC(C)(C)CC2=O` [Example I-40, 2-(2,6,6-trimethyl-3-(2-(morpholinosulfonyl)benzyl)-4-oxo-4,5,6,7-tetrahydro-1H-indol-1-yl)acetic acid], the IC50 was under 5 nM against CRTH2 [1] and 5 to 100 nM on CRTH2 [3]. Moreover, the ED50 in test [2] was under 1 mg/kg.

In the case of `Cc1c(Cc2ccc(S(=O)(=O)N3CCCC3)cc2)c2c(n1CC(=O)O)CCCCC2` [Example I-20, 2-(2-Methyl-3-(4-(pyrrolidin-1-ylsulfonyl)benzyl)-5,6,7,8-tetrahydrocyclohepta[b]pyrrol-1(4H)-yl)acetic acid], the 50% inhibitory concentration (IC50) at CRTH2 [1] and at CRTH2 [3] was 5 to 100 nM each time. This molecule also gave an ED50 in test [2] of under 1 mg/kg.
